Read-outs that look alike come from different tables or passages of the source.
How the values were obtained:
[1] = test system: recombinant wt SARS-CoV-2-mCherry (rWA1); test: microbe, parasite or virus in culture; assay type: cell-based
[2] = test system: wild-type VSV-G-3CL^pro-L; test: microbe, parasite or virus in culture; assay type: cell-based

## CC(C)(C)[C@H](NC(=O)C(F)(F)F)C(=O)N1C[C@H]2[C@@H]([C@H]1C(=O)N[C@H](C#N)C[C@@H]1CCNC1=O)C2(C)C [Nirmatrelvir, nirmatrelvir]
[1]; Severe acute respiratory syndrome coronavirus 2, read-out: IC50 48 hpi
  IC50: 8.68 nM
[1]; Severe acute respiratory syndrome coronavirus 2, read-out: IC50 72 hpi
  IC50: 8.51 nM
[2]
  replication inhibited: 10^6 fold
[2]; Vesicular stomatitis virus, BHK-21, 24 h, read-out: half maximal inhibitor concentration (IC50) of virus replication
  IC50: ~185 nM
